Test results as given in PMC7198766, “Structure-Activity Studies on the Hypertrehalosemic Hormone II of the Stick Insect Carausius morosus (Phasmatodea): Carbohydrate-Mobilization and Cardio-Stimulatory Activities” (Frontiers in Physiology, 2020).
Marks after values point to notes of the source that are not given here.

How the values were obtained:
[1] = tested on: heart of neck-ligated Carausius morosus; experiment: Semi-exposed heart bioassay (heart beat rate); format: in vivo; details: for Heart rate, Post-application: after application of 20 pmol peptide in 150 μl saline, average of first four counts; for Heart rate, Post-application / Heart rate, Pre-application: neck-ligated stick insects; for Heart rate, Pre-application: in saline before application, semi-exposed heart; for Heart rate, Difference: post- minus pre-application; for Heart rate, Difference / % Activity relative to the effect of Carmo-HrTH-II (myotropic): 20 pmol peptide in 150 μl; for % Activity relative to the effect of Carmo-HrTH-II (myotropic): heart rate increase relative to Carmo-HrTH-II = 100, NS = no significant increase
Experimental: The semi-exposed heart bioassay was carried out as described ([Marco et al., 2018]) with adult stick insects between 1 and 2 months old that were ligated at the neck. Briefly, a ventral incision of the abdomen exposed the ventral cavity with the internal organs; a few drops of stick insect saline (pH 6.6; 15 mM NaCl, 18 mM KCl, 7.5 mM CaCl2, 2 mM HEPES, 50 mM MgCl2, and 184 mM glucose according to [Ejaz and Lange, 2008]) were added to the exposed part. The semi-isolated heart preparation was viewed with a dissecting microscope (12-fold magnification), and the number of observed heart beats (contractions of the heart muscle) was counted during a fixed period using a manual tally counter and a timer. Once the heart had stabilized, saline was replaced with the test solution. For this the peptide stock solution of 5 pmol μl^–1 was diluted with stick insect saline to the desired concentration and a final volume of 150 μl was used for each test.
Heart rates under normal saline served as controls. The change in heart rate after the application of the test solution was calculated as an average of the first four counts and was compared to the average heart rates counted in saline before the application of the test solution. This comparison of change in heart rates was done for all the peptides tested.

[2] = tested on: ligated 6th instar Indian stick insects (Carausius morosus); experiment: Carbohydrate-mobilization (hypertrehalosemic) in vivo assay; details: for Hemolymph carbohydrates, 90 min: 90 min after injection of 20 pmol peptide in 10 μl; for Hemolymph carbohydrates, 90 min / Hemolymph carbohydrates, Difference: neck-ligated 6th instar nymphs; for Hemolymph carbohydrates, Difference: 90 min minus 0 min, 20 pmol peptide in 10 μl injected; for Hemolymph carbohydrates, 0 min: before injection (0 min), 2 h after neck ligation, group later given 20 pmol peptide in 10 μl, 6th instar nymphs; for % Activity relative to the effect of Carmo-HrTH-II (metabolic): 20 pmol peptide injected, carbohydrate increase relative to Carmo-HrTH-II = 100, NS = no significant increase
Experimental: Sixth instar nymphs that were 1–2 days before molting were neck-ligated and used in the hypertrehalosemic in vivo assay as described in detail by [Gäde and Lohr (1982)]. Stock peptide solutions (5 pmol μl^–1) were diluted with distilled water to the desired concentration in 10 μl, which was injected into the stick insect nymphs.
In the first series of experiments, various doses of synthetic Carmo-HrTH-II and corpora cardiaca (CC) extract of C. morosus were used to determine the maximal hypertrehalosemic response of C. morosus. Hemolymph samples were taken from 17 to 18 days old 6th instar nymphs 2 h after they were neck-ligated and then 90 min after either CC extract or synthetic Carmo-HrTH-II was injected. Ligated nymphs injected with distilled water served as controls for handling stress. As depicted in Figures 1A,B, various doses of both Carmo-HrTH-II and CC extract increased the level of carbohydrates in the hemolymph in a dose-dependent manner. A dose of 0.04 pmol of synthetic Carmo-HrTH-II and the equivalent of 0.005 pairs of corpora cardiaca (pCC) were sufficient to give significant increases in hemolymph carbohydrates (p < 0.05). […] Doses of 0.1–0.5 pCC gave an average increase of 5.6 ± 0.6 mg carbohydrates ml^–1 hemolymph (Figure 1B); again, statistical analyses reveal no significant difference between the effect of these doses (p > 0.05).
Based on these pilot experiments, we selected a dose of 20 pmol for testing the analogs of Carmo-HrTH-II since such a dose of our lead compound, Carmo-HrTH-II had achieved maximal hypertrehalosemic activity.

pGlu-Leu-Thr-Phe-Thr-Pro-Asn-Ala-Gly-Thr amide [Ala^8-Carmo-HrTH-II]
Heart rate, Post-application [1]: 42 ± 4 beats min^−1
Heart rate, Pre-application [1]: 42 ± 5 beats min^−1
Heart rate, Difference [1]: 0 ± 2 beats min^−1
Hemolymph carbohydrates, 90 min [2]: 8.3 ± 1.9 mg/mL
Hemolymph carbohydrates, Difference [2]: -0.1 ± 1.3 mg/mL
Hemolymph carbohydrates, 0 min [2]: 8.5 ± 2.1 mg/mL

pGlu-Leu-Thr-Phe-Thr-Pro-Ser-Trp amide [Aedae-AKH, naturally-occurring AKH octapeptide bioanalog, reference compound]
% Activity relative to the effect of Carmo-HrTH-II (myotropic) [1]: 8%
Heart rate, Post-application [1]: 43 ± 6 beats min^−1
Heart rate, Pre-application [1]: 42 ± 6 beats min^−1
Heart rate, Difference [1]: 1 ± 1 beats min^−1
Hemolymph carbohydrates, 90 min [2]: 8.8 ± 1.2 mg/mL
Hemolymph carbohydrates, Difference [2]: 0.7 ± 1.1 mg/mL
Hemolymph carbohydrates, 0 min [2]: 8.1 ± 1.4 mg/mL

pGlu-Leu-Ala-Phe-Thr-Pro-Asn-Trp-Gly-Thr amide [Ala^3-Carmo-HrTH-II]
% Activity relative to the effect of Carmo-HrTH-II (myotropic) [1]: 16%
Heart rate, Post-application [1]: 40 ± 6 beats min^−1
Heart rate, Pre-application [1]: 38 ± 6 beats min^−1
Heart rate, Difference [1]: 2 ± 1 beats min^−1
Hemolymph carbohydrates, 90 min [2]: 11.1 ± 1.8 mg/mL
Hemolymph carbohydrates, Difference [2]: 0.8 ± 1.6 mg/mL
Hemolymph carbohydrates, 0 min [2]: 10.3 ± 2.4 mg/mL

[N-Ac]Ala-Leu-Thr-Phe-Thr-Pro-Asn-Trp-Gly-Thr amide [Carmo-HrTH-II: [N-Ac]Ala^1]
Heart rate, Post-application [1]: 39 ± 6 beats min^−1
Heart rate, Pre-application [1]: 39 ± 6 beats min^−1
Heart rate, Difference [1]: 0 ± 0 beats min^−1
% Activity relative to the effect of Carmo-HrTH-II (metabolic) [2]: 28%
Hemolymph carbohydrates, 90 min [2]: 10.6 ± 2.0 mg/mL
Hemolymph carbohydrates, Difference [2]: 1.5 ± 1.1 mg/mL
Hemolymph carbohydrates, 0 min [2]: 9.0 ± 1.3 mg/mL

pGlu-Leu-Thr-Phe-Thr-Pro-Asn-Trp-Gly-Ala amide [Ala^10-Carmo-HrTH-II]
Heart rate, Post-application [1]: 41 ± 5 beats min^−1
Heart rate, Pre-application [1]: 41 ± 5 beats min^−1
Heart rate, Difference [1]: 0 ± 1 beats min^−1
% Activity relative to the effect of Carmo-HrTH-II (metabolic) ([2]; listed as Ala^10 analog of Carmo-HrTH-II): about 50%
Hemolymph carbohydrates, 90 min [2]: 12.4 ± 1.6 mg/mL
Hemolymph carbohydrates, Difference [2]: 2.5 ± 1.0 mg/mL
Hemolymph carbohydrates, 0 min [2]: 9.9 ± 2.3 mg/mL

pGlu-Leu-Thr-Ala-Thr-Pro-Asn-Trp-Gly-Thr amide [Ala^4-Carmo-HrTH-II]
Heart rate, Post-application [1]: 41 ± 4 beats min^−1
Heart rate, Pre-application [1]: 40 ± 4 beats min^−1
Heart rate, Difference [1]: 1 ± 1 beats min^−1
Hemolymph carbohydrates, 90 min [2]: 9.1 ± 2.4 mg/mL
Hemolymph carbohydrates, Difference [2]: 0.5 ± 2.3 mg/mL
Hemolymph carbohydrates, 0 min [2]: 8.6 ± 2.2 mg/mL

pGlu-Leu-Thr-Phe-Thr-Pro-Ala-Trp-Gly-Thr amide [Ala^7-Carmo-HrTH-II]
Heart rate, Post-application [1]: 39 ± 4 beats min^−1
Heart rate, Pre-application [1]: 39 ± 4 beats min^−1
Heart rate, Difference [1]: 0 ± 1 beats min^−1
% Activity relative to the effect of Carmo-HrTH-II (metabolic) [2]: 13%
Hemolymph carbohydrates, 90 min [2]: 12.0 ± 2.2 mg/mL
Hemolymph carbohydrates, Difference [2]: 0.7 ± 0.6 mg/mL
Hemolymph carbohydrates, 0 min [2]: 11.3 ± 2.0 mg/mL

pGlu-Val-Asn-Phe-Thr-Pro-Asn-Trp-Gly-Thr amide [Rommi-CC, naturally-occurring AKH decapeptide bioanalog, reference compound]
% Activity relative to the effect of Carmo-HrTH-II (myotropic) [1]: 150^b %
Heart rate, Post-application [1]: 57 ± 4 beats min^−1
Heart rate, Pre-application [1]: 39 ± 3 beats min^−1
Heart rate, Difference [1]: 18 ± 6 beats min^−1
% Activity relative to the effect of Carmo-HrTH-II (metabolic) [2]: 48%
Hemolymph carbohydrates, 90 min [2]: 10.6 ± 1.6 mg/mL
Hemolymph carbohydrates, Difference [2]: 2.6 ± 1.5 mg/mL
Hemolymph carbohydrates, 0 min [2]: 8.0 ± 1.4 mg/mL
